Experiments:
Type in all cases: toxicity, cell-based
Fibroblast = assay: Incucyte cell viability with human fibroblast; conditions: 10 µM, compound concentration 10 uM
U2OS = assay: Incucyte cell viability with U2OS; conditions: human, 10 µM, compound concentration 10 uM
HEK-293T = assay: Incucyte cell viability with HEK293T; conditions: human, 10 µM, compound concentration 10 uM
Also: unitless GR value; below 1 slowed growth and below 0 cell loss.

Compound | Growth Rate (Fibroblast; 0 h, replicate number 1) | Growth Rate (Fibroblast; 6 h, replicate number 1) | Growth Rate (Fibroblast; 12 h, replicate number 2) | Growth Rate (Fibroblast; 18 h, replicate number 2) | Growth Rate (Fibroblast; 24 h, replicate number 1) | Growth Rate (Fibroblast; 24 h, replicate number 2) | Growth Rate (U2OS; 24 h, replicate number 1) | Growth Rate (HEK-293T; 0 h, replicate number 1) | Growth Rate (HEK-293T; 0 h, replicate number 2) | Growth Rate (HEK-293T; 6 h, replicate number 2) | Growth Rate (HEK-293T; 12 h, replicate number 2) | Growth Rate (HEK-293T; 18 h, replicate number 1) | Growth Rate (HEK-293T; 24 h, replicate number 1) | Growth Rate (U2OS; 0 h, replicate number 2) | Growth Rate (U2OS; 6 h, replicate number 1) | Growth Rate (U2OS; 6 h, replicate number 2) | Growth Rate (U2OS; 12 h, replicate number 2) | Growth Rate (U2OS; 18 h, replicate number 1) | Growth Rate (U2OS; 18 h, replicate number 2) | Growth Rate (U2OS; 24 h, replicate number 2) | also measured
CC(C)(C)c1cc(NC(=O)c2csc(Nc3ccc(Cl)cc3)n2)no1 | -1 | 0.89 | 0.46 | 0.74 | 0.8 | 0.87 | -0.59 | 0.27 | -0.44 | 0.84 | 0.99 | 0.94 | 0.97 | – | – | – | – | – | – | – | –
C=C(F)C(=O)N1CCN(c2nc(OC[C@@H]3CCCN3C)nc3c2CCN(c2cccc4cccc(Cl)c24)C3)C[C@@H]1CC#N [ADAGRASIB] | -1 | -0.47 | -0.18 | -0.27 | -0.3 | -0.22 | -0.76 | – | – | -0.86 | -0.57 | -0.25 | -0.21 | -0.94 | -0.94 | 0.32 | -0.11 | -0.89 | -0.27 | -0.3 | Growth Rate (Fibroblast; 6 h, replicate number 2): -0.86; Growth Rate (Fibroblast; 12 h, replicate number 1): -0.27; Growth Rate (Fibroblast; 18 h, replicate number 1): -0.26; Growth Rate (U2OS; 0 h, replicate number 1): -1; Growth Rate (U2OS; 12 h, replicate number 1): -0.94; Growth Rate (HEK-293T; 6 h, replicate number 1): -0.26; Growth Rate (HEK-293T; 12 h, replicate number 1): -0.28; Growth Rate (HEK-293T; 18 h, replicate number 2): -0.46; Growth Rate (HEK-293T; 24 h, replicate number 2): -0.38
N#Cc1c(SCc2csc(-c3ccc(Cl)cc3)n2)nc(N2CCCC2)c(C#N)c1-c1ccc(OCCO)cc1 | – | – | – | – | – | – | – | -0.68 | -0.75 | – | – | – | – | 0.14 | 0.87 | 0.8 | 0.77 | – | 0.93 | 0.97 | Growth Rate (Fibroblast; 0 h, replicate number 2): -1
CCOC(=O)C1=C[C@]2(CC)CCCN3CCc4c(n1c1ccccc41)[C@@H]32 [VINPOCETINE] | – | 0.56 | 0.32 | 0.85 | – | – | – | – | 0.71 | – | 0.83 | 0.95 | 0.94 | -0.97 | – | 0.42 | 0.83 | – | 0.73 | 0.79 | Growth Rate (Fibroblast; 6 h, replicate number 2): -0.97; Growth Rate (Fibroblast; 12 h, replicate number 1): -1; Growth Rate (U2OS; 0 h, replicate number 1): -0.74; Growth Rate (HEK-293T; 6 h, replicate number 1): 0.46; Growth Rate (HEK-293T; 12 h, replicate number 1): 1; Growth Rate (HEK-293T; 18 h, replicate number 2): 0.89
CNS(=O)(=O)c1ccc(N(C)C)c(Nc2ncnc3cc(OC)c(OC)cc23)c1 | -1 | – | 0.32 | 0.4 | 0.51 | 0.29 | 0.8 | -0.66 | 0.17 | 0.92 | 0.6 | 0.88 | 0.79 | – | – | 0.65 | 0.6 | 0.85 | 0.39 | 0.71 | Growth Rate (Fibroblast; 18 h, replicate number 1): 0.69; Growth Rate (U2OS; 0 h, replicate number 1): -1; Growth Rate (U2OS; 12 h, replicate number 1): 0.84; Growth Rate (HEK-293T; 18 h, replicate number 2): 0.42; Growth Rate (HEK-293T; 24 h, replicate number 2): 0.47
Cc1cc2c(cc(C(=O)N[C@H](CO)c3ccc(S(=O)(=O)CC(=O)O)cc3)n2C)c(Cl)c1Cl | – | 0.15 | 0.77 | 0.68 | – | – | 0.95 | 0.87 | – | – | – | – | 0.99 | – | 0.61 | 0.7 | 0.94 | 0.92 | 0.79 | 1 | Growth Rate (HEK-293T; 6 h, replicate number 1): 0.99
Cc1cc(-c2nncc3c(C(C)(C)C)c(OCc4ncnn4C)nn23)no1 | -0.5 | 1 | 0.98 | 0.78 | 0.26 | 0.87 | 0.93 | – | 0.72 | 0.78 | 0.53 | 0.1 | 0.14 | -0.99 | 0.85 | 0.23 | 0.67 | 0.82 | 0.71 | 0.86 | Growth Rate (Fibroblast; 6 h, replicate number 2): -0.97; Growth Rate (Fibroblast; 18 h, replicate number 1): 0.1; Growth Rate (HEK-293T; 6 h, replicate number 1): 0.14; Growth Rate (HEK-293T; 12 h, replicate number 1): 0.35; Growth Rate (HEK-293T; 18 h, replicate number 2): 0.57; Growth Rate (HEK-293T; 24 h, replicate number 2): 0.61
